Measurements from paper PMC10566733 (PLOS ONE, 2023).
Values joined by “and” are separate entries in the source; they are usually repeats but may differ in a detail not shown here. Identical values can stand only once.

Key:
[1] = system: monolayer of bEnd.3 mouse brain endothelial cells; assay: Permeability across a monolayer of brain endothelial cells (in vitro BBB model); format: in vitro ADME; set-up: Diffusion of FITC-TAT across bEnd.3 monolayer / Diffusion of FITC-linked peptide across bEnd.3 monolayer / Diffusion of FITC-TAT across bEnd.3 monolayer, FITC-TAT + TAT / Diffusion of FITC-TAT across bEnd.3 monolayer, FITC-TAT + TATK/R>A: unit not given here; details: for Diffusion of FITC-TAT across bEnd.3 monolayer, FITC-TAT + TAT: FITC-TAT 10 μM coupled with non-FITC TAT 10 μM; for Diffusion of FITC-TAT across bEnd.3 monolayer, FITC-TAT + TAT / Diffusion of FITC-TAT across bEnd.3 monolayer, FITC-TAT + TATK/R>A / Diffusion of FITC-TAT across bEnd.3 monolayer / Diffusion of FITC-linked peptide across bEnd.3 monolayer: fluorescence spectrophotometry; for Diffusion of FITC-TAT across bEnd.3 monolayer, FITC-TAT + TATK/R>A: FITC-TAT 10 μM coupled with non-FITC TAT^K/R>A 10 μM; for Diffusion of FITC-TAT across bEnd.3 monolayer: bEnd.3 monolayer on Transwell, serum-free DMEM
[2] = endothelial monolayers absent; FITC-TAT 10 μM; Fig 1A
Experimental: (§1) Briefly, the cells were seeded onto 24-well culture inserts (Falcon Permeable Support for 24-well plate; cat. #353104), and one-half of the medium was replaced every other day, and the cells were cultured for 5 days prior to the performance of a permeability assay. On the day of the assay, the culture medium was replaced with serum-free DMEM with FITC-linked peptides or bovine serum albumin (Sigma).

[3] = system: monolayer of bEnd.3 brain endothelial cells; details: 1000 μM TAT; Fig 5A
Experimental: as §1
Medium collected from cell culture in vitro (12 μl medium per culture) and tissue samples harvested from mice in vivo were denatured by boiling in lysis buffer, separated by electrophoresis, transferred onto PVDF membranes, and imaged after incubation in primary and secondary antibodies as described previously for in vitro [55] and in vivo [57] experiments. The following primary antibodies were used: anti-albumin (1:2000; GeneTex, cat. #102419, for the in vitro experiments; 1:5000; Abcam, cat. #ab106582, for the in vivo experiments) and anti-ɑ-tubulin (1:5000; GeneTex, cat. #GTX628802) antibodies, and the following secondary antibodies were used: anti-rabbit (1:5000; GeneTex, cat. #GTX213110-01), anti-mouse (1:1000; GeneTex, cat. #GTX213111-01), and anti-chicken (1:1000; Abcam, cat. #ab97135) antibodies.

[4] = diffusion time 0.1 h, individual cultures n = 3
[5] = diffusion time 12 h, individual cultures n = 3
[6] = diffusion time 24 h, individual cultures n = 3

## N=C(N)NCCC[C@H](NC(=O)[C@H](CCCNC(=N)N)NC(=O)[C@H](CCCNC(=N)N)NC(=O)[C@H](CCC(N)=O)NC(=O)[C@H](CCCNC(=N)N)NC(=O)[C@H](CCCNC(=N)N)NC(=O)[C@H](CCCCN)NC(=O)[C@H](CCCCN)NC(=O)[C@H](CCCNC(=N)N)NC(=O)CNC(=O)[C@H](Cc1ccc(O)cc1)NC(=S)Nc1ccc2c(c1)C(=O)OC21c2ccc(O)cc2Oc2cc(O)ccc21)C(=O)O [FITC-TAT]
[1]; 37°C, regardless of whether monolayers of brain endothelial cells were cultured on the membranes, Fig 1A and 1B
  Diffusion of FITC-TAT from upper to lower chamber of Transwell inserts: readily diffused across to the lower chamber
[1]; [4]
  Diffusion of FITC-TAT across bEnd.3 monolayer, FITC-TAT + TAT: 1.844 and 1.839 and 1.804
  Diffusion of FITC-TAT across bEnd.3 monolayer, FITC-TAT + TATK/R>A: 1.736 and 1.755 and 1.705
[1]; [5]
  Diffusion of FITC-TAT across bEnd.3 monolayer, FITC-TAT + TAT: 42.0052 and 42.275 and 41.3436
  Diffusion of FITC-TAT across bEnd.3 monolayer, FITC-TAT + TATK/R>A: 41.331 and 40.0366 and 39.1388
[1]; [6]
  Diffusion of FITC-TAT across bEnd.3 monolayer, FITC-TAT + TAT: 90.1666 and 89.6029 and 94.8903
  Diffusion of FITC-TAT across bEnd.3 monolayer, FITC-TAT + TATK/R>A: 85.9302 and 85.5824 and 85.3453
[1]; FITC-TAT 10 μM with 10 μM competitor, Fig 3D
  Effect of the presence of non-FITC TAT or non-FITC TAT^K/R>A on permeability of the monolayer to FITC-TAT: only marginally decreased
[1]; FITC-TAT 10 μM, NaN3 10 mM and 2-DG 6 mM, 1 h pre-treatment or 24 h, Fig 2B
  Effect of NaN3 and 2-DG treatment regimens on ability of FITC-TAT to cross the monolayer: neither treatment regimens had an effect
[1]; FITC-TAT 10 μM, 4°C, diffusion time 0 h, individual cultures n = 10
  Diffusion of FITC-TAT across bEnd.3 monolayer: 1.386 and 10.0745 and 1.495 and 1.465 and 7.9907 and 7.9 and 8.057 and 7.849 and 10.0907 and 10.1377
[1]; FITC-TAT 10 μM, 4°C, diffusion time 0.5 h, individual cultures n = 10
  Diffusion of FITC-TAT across bEnd.3 monolayer: 2.727 and 10.2694 and 1.946 and 2.6148 and 12.2754 and 11.4859 and 13.8266 and 14.9326 and 10.2588 and 10.1802
[1]; FITC-TAT 10 μM, 4°C, diffusion time 1 h, individual cultures n = 10
  Diffusion of FITC-TAT across bEnd.3 monolayer: 3.318 and 12.0592 and 3.998 and 4.153 and 14.099 and 14.1024 and 12.2279 and 14.4626 and 12.8546 and 12.5004
[1]; FITC-TAT 10 μM, 4°C, diffusion time 2 h, individual cultures n = 10
  Diffusion of FITC-TAT across bEnd.3 monolayer: 4.184 and 12.4226 and 4.5396 and 5.958 and 21.4454 and 17.4004 and 16.7345 and 14.5981 and 18.4195 and 13.6876
[1]; FITC-TAT 10 μM, 4°C, diffusion time 4 h, individual cultures n = 10
  Diffusion of FITC-TAT across bEnd.3 monolayer: 12.2948 and 22.4089 and 5.603 and 11.4776 and 26.9335 and 21.9034 and 18.3373 and 22.0326 and 23.9812 and 20.9146
[1]; FITC-TAT 10 μM, 4°C, diffusion time 8 h, individual cultures n = 10
  Diffusion of FITC-TAT across bEnd.3 monolayer: 23.6561 and 36.4429 and 7.1971 and 15.1917 and 28.8919 and 24.9217 and 33.0378 and 37.6449 and 33.9313 and 51.5353
[1]; FITC-TAT 10 μM, 4°C, diffusion time 12 h, individual cultures n = 10
  Diffusion of FITC-TAT across bEnd.3 monolayer: 44.603 and 38.3865 and 18.3523 and 26.8326 and 40.1964 and 39.8496 and 31.2218 and 52.2936 and 30.2304 and 54.311
[1]; FITC-TAT 10 μM, 37°C, diffusion time 0 h, individual cultures n = 8
  Diffusion of FITC-TAT across bEnd.3 monolayer: 2.7408 and 2.991 and 8.292 and 8.146 and 7.613 and 9.624 and 9.686 and 9.768
[1]; FITC-TAT 10 μM, 37°C, diffusion time 0.5 h, individual cultures n = 8
  Diffusion of FITC-TAT across bEnd.3 monolayer: 5.546 and 5.194 and 16.5195 and 13.9086 and 14.4213 and 13.3482 and 14.7024 and 14.0517
[1]; FITC-TAT 10 μM, 37°C, diffusion time 1 h, individual cultures n = 8
  Diffusion of FITC-TAT across bEnd.3 monolayer: 8.062 and 7.828 and 16.9226 and 16.4917 and 15.6732 and 12.2867 and 19.4469 and 13.4865
[1]; FITC-TAT 10 μM, 37°C, diffusion time 2 h, individual cultures n = 8
  Diffusion of FITC-TAT across bEnd.3 monolayer: 13.5165 and 10.5024 and 28.7248 and 24.7001 and 24.2495 and 24.3505
[1]; cells incubated with 100 μM cytochalasin D, FITC-TAT 10 μM, Fig 4D
  FITC-TAT movement across the endothelial monolayer with cytochalasin D: increased rather than inhibited
[1]; endothelial monolayers present, FITC-TAT 10 μM, Fig 1B
  Effect of lowering the temperature to 4°C on diffusion of FITC-TAT across Transwell inserts: substantially decreased
[1]; peptide 1 μM (Fig 3A), diffusion time 0.1 h, individual cultures n = 4
  Diffusion of FITC-linked peptide across bEnd.3 monolayer: 16.1034 and 15.6278 and 16.2621 and 16.9227
[1]; peptide 1 μM (Fig 3A), diffusion time 4 h, individual cultures n = 4
  Diffusion of FITC-linked peptide across bEnd.3 monolayer: 33.068 and 35.9601 and 44.67 and 33.2662
[1]; peptide 1 μM (Fig 3A), diffusion time 12 h, individual cultures n = 4
  Diffusion of FITC-linked peptide across bEnd.3 monolayer: 59.5062 and 62.0797 and 69.9514 and 60.3513
[1]; peptide 1 μM (Fig 3A), diffusion time 24 h, individual cultures n = 4
  Diffusion of FITC-linked peptide across bEnd.3 monolayer: 98.4329 and 97.1083 and 108.448 and 96.0109
[1]; peptide 3 μM (Fig 3B), diffusion time 0.1 h, individual cultures n = 4
  Diffusion of FITC-linked peptide across bEnd.3 monolayer: 5.536 and 5.776 and 5.613 and 5.958
[1]; peptide 3 μM (Fig 3B), diffusion time 4 h, individual cultures n = 4
  Diffusion of FITC-linked peptide across bEnd.3 monolayer: 30.6967 and 26.8471 and 24.0637 and 21.038
[1]; peptide 3 μM (Fig 3B), diffusion time 12 h, individual cultures n = 4
  Diffusion of FITC-linked peptide across bEnd.3 monolayer: 69.4896 and 55.4891 and 51.5686 and 64.8124
[1]; peptide 3 μM (Fig 3B), diffusion time 24 h, individual cultures n = 4
  Diffusion of FITC-linked peptide across bEnd.3 monolayer: 112.045 and 93.6163 and 91.1166 and 103.222
[1]; peptide 10 μM (Fig 3C), diffusion time 0.1 h, individual cultures n = 4
  Diffusion of FITC-linked peptide across bEnd.3 monolayer: 1.488 and 1.536 and 1.502 and 1.69
[1]; peptide 10 μM (Fig 3C), diffusion time 4 h, individual cultures n = 4
  Diffusion of FITC-linked peptide across bEnd.3 monolayer: 20.2675 and 19.471 and 18.2115 and 22.8397
[1]; peptide 10 μM (Fig 3C), diffusion time 12 h, individual cultures n = 4
  Diffusion of FITC-linked peptide across bEnd.3 monolayer: 55.3743 and 53.9149 and 46.6389 and 56.9448
[1]; peptide 10 μM (Fig 3C), diffusion time 24 h, individual cultures n = 4
  Diffusion of FITC-linked peptide across bEnd.3 monolayer: 95.2978 and 101.031 and 98.8203 and 104.851
[1]; peptide 10 μM alone (Fig 3D), diffusion time 0.1 h, individual cultures n = 3
  Diffusion of FITC-linked peptide across bEnd.3 monolayer: 1.749 and 1.772 and 1.79
[1]; peptide 10 μM alone (Fig 3D), diffusion time 12 h, individual cultures n = 3
  Diffusion of FITC-linked peptide across bEnd.3 monolayer: 43.9695 and 46.4386 and 47.7244
[1]; peptide 10 μM alone (Fig 3D), diffusion time 24 h, individual cultures n = 3
  Diffusion of FITC-linked peptide across bEnd.3 monolayer: 96.1412 and 98.5343 and 105.324
[2]
  Effect of lowering the temperature to 4°C on diffusion of FITC-TAT across Transwell inserts: had no effect

## N=C(N)NCCC[C@H](NC(=O)[C@H](CCCNC(=N)N)NC(=O)[C@H](CCCNC(=N)N)NC(=O)[C@H](CCC(N)=O)NC(=O)[C@H](CCCNC(=N)N)NC(=O)[C@H](CCCNC(=N)N)NC(=O)[C@H](CCCCN)NC(=O)[C@H](CCCCN)NC(=O)[C@H](CCCNC(=N)N)NC(=O)CNC(=O)[C@@H](N)Cc1ccc(O)cc1)C(=O)O [TAT]
[3]
  Effect of TAT on the amount of albumin that crossed the monolayer: significantly increased
